For series [1] the following is noted: ref Horton et al., cited from earlier work; for pKa of the α-amino group: 25 °C, free amino acid.
The subject of series [2] is Caco-2 cells. It counts as cell-based, human. The settings on record: for IC50: read-out: IC50 MTT 24-hr, Caco-2 confluent monolayers, 24-hr single dosing.
The test system of series [3] is Caco-2 cells. It counts as cell-based, human. The conditions noted are these: read-out: IC50 TMER 24-hr; Caco-2 monolayers on PET inserts, 24-hr single dosing.

Read-outs that look alike come from different tables or passages of the source.

The values below come from paper PMC2950867 (Journal of pharmacological and toxicological methods, 2010).

Usually IC50 stands for the concentration at which inhibition is half-maximal.

In the case of `NC(=O)C[C@H](N)C(=O)O` [asparagine], in series [1], the “pKa of the α-amino group” value is 8.7.

For `[Cl][Cd][Cl]` [cadmium chloride], the values for the 50% inhibitory concentration (IC50) in series [2] and in series [3] were 109 µM and 49 µM, respectively.

In the case of `O=S(=O)([O-])[O-].[Cu+2]` [cupric sulfate], the IC50 is 1570 µM in series [2] and 1800 µM in series [3].

Turning to `N[C@@H](CS)C(=O)O` [cysteine], the “pKa of the α-amino group” value in series [1] is given as 10.7.

For `NCC(=O)O` [glycine], in series [1], the “pKa of the α-amino group” value is 9.8 and the “hydropathy (tendency to prefer a hydrophobic environment)” value is 0.16 kcal/mol.

Regarding `[Cl][Mn][Cl]` [manganese chloride], the values for the IC50 in series [2] and in series [3] were 9600 µM and 3080 µM, respectively.

`[Cl][Ni][Cl]` [nickel chloride]: the “MTT (cell viability)” value in series [2] (24-hr single exposure at the 24-hr TMER IC50 concentration) is reported as 16% of control. In addition, the half-inhibitory concentration (IC50) in series [2] amounted to 968 µM; in series [3] it was 8400 µM.

`N[C@@H](Cc1ccc(O)cc1)C(=O)O` [tyrosine]: in series [1], the “hydropathy (tendency to prefer a hydrophobic environment)” value is 0.019 kcal/mol.

Take mercury chloride: in series [3], the IC50 was 90 µM.
